Results reported in patent US10231939B2, “Hydroxytyrosol and oleuropein compositions for induction of DNA damage, cell death and LSD1 inhibition” (priority 2012, dated 2019).
pEC50: −log10 of the molar value. Values joined by “and” are separate entries in the source; they are usually repeats but may differ in a detail not shown here. Equal values may be shown once. Values belong to the compound of their own block, whether it stands above or below them.

Experiments:
[1] = tested on: K562 cells; experiment: Cell proliferation (Cell Titer-Blue Assay); format: cell-based, human; conditions: for pEC50: Homo sapiens
Text: (§1) Human chronic myelogenous leukemia K562 cells (ATCC No. CCL-243), human large B-lymphocyte non-Hodgkin's lymphoma LCL cells, human leukemic monocyte lymphoma U937 cells (ATCC No. CRL-1593.2), human prostate adenocarcinoma PC3 (ATCC No. CRL-1435) and human gastric carcinoma SNU-16 cells (ATCC No. CRL-5974) were maintained in complete-[…] Park Memorial Institute (RPMI) 1640 medium supplemented with 20 mmol/L HEPES (pH 7.4; GIBCO-Invitrogen, Carlsbad, Calif., USA), 10% (v/v) fetal bovine serum (FBS), 2 mmol/L L-glutamine (GIBCO-Invitrogen), and 80 units gentamicin (GIBCO-Invitrogen). Cells were cultured in suspension in a humidified atmosphere of 5% (v/v) CO2 at 37° C. and were maintained in exponential growth phase. For maintenance, cells were passaged twice per week and seeded at ratios 1:10. Cell proliferation was determined using the Cell Titer-Blue Assay kit (Promega, Madison, Wis., USA). Cells were seeded at 10,000 cells per well in black flat bottom 96-well plates (Nalge Nunc, Penfield, N.Y., USA) and treated with serial doses of hydroxytyrosol (0-3200 μM) and oleuropein (0-12800 μM) for 24, 48 and 120 hours at 37° C., 5% (v/v) CO2. Following incubation with the test samples, Cell-Titer Blue reagent (20 μl per 100 μL) was added to each well and mixed gently for 5 sec prior to 4 hr incubation at 37° C. in a humidified atmosphere of 5% CO2. Fluorescence intensity (λex=550 nm and λem=615 nm) was determined using a Perkin Elmer Victor3 multilabel microplate counter (PerkinElmer, Waltham, Mass., USA). Data were expressed as % relative cell viability compared to untreated cells after correction of subtracting the media control fluorescence reading.

[2] = tested on: U937 cells; experiment: Cell proliferation (Cell Titer-Blue Assay); format: cell-based, human; conditions: for pEC50: Homo sapiens, U-937
Text: as §1

[3] = tested on: human keratinocytes; experiment: mRNA-Sequencing, human keratinocytes; format: cell-based
Protocol: Human chronic myelogenous leukemia K562 cells (ATCC No. CCL-243) were obtained from the American Type Culture Collection (Manassas, Va., USA) and maintained in complete-[…] Park Memorial Institute (RPMI) 1640 medium supplemented with 20 mmol/L HEPES (pH 7.4; GIBCO-Invitrogen, Carlsbad, Calif., USA), 10% (v/v) fetal bovine serum (FBS), 2 mmol/L L-glutamine (GIBCO-Invitrogen), and 80 units gentamicin (GIBCO-Invitrogen). Cells were cultured in suspension in a humidified atmosphere of 5% (v/v) CO2 at 37° C. and were maintained in exponential growth phase. For maintenance, cells were passaged twice per week and seeded at ratios 1:10. Human neonatal foreskin keratinocytes transfected with the human papilloma virus (HPV) were grown as monolayers in keratinocyte—Serum Free Medium (SFM) medium (GIBCO-Invitrogen) supplemented with L-glutamine, human epidermal growth factor (EGF), and bovine pituitary extract (BPE) at 37° C., 5% (v/v) CO2. Cells were passaged by trypsinisation and seeded at ratio of 1:3. Cells were seeded at densities of 1×10^6/mL in culture flasks (Nalge Nunc, New York, USA) and treated with hydroxytyrosol (0, 20, 100 μM), for 24 hours at 37° C., 5% (v/v) CO2. mRNA sequencing was performed by TRIZOL extraction and library preparation using Illumina kits according to manufacturer's protocols. Next generation sequencing (NGS) was performed at a depth of approximately 20 million mapped reads per sample to determine the effect of hydroxytyrosol on genome-wide gene expression, in human erythroleukemic K562 cells and human keratinocytes (24 hr treatment, 20 and 100 μM). Reads generated by the Illumina base calling software V1.6 were aligned with Burrows Wheeler Aligner to the human transcriptome database curated by RefSeq (Hg18 build). Raw counts were normalized to adjust for slightly differing data volume across lanes giving the widely used score reads per transcript per million reads. These scores were used to determine relative fold changes and the conventionally used ±1.5 fold-change, which is discernible with qRT-PCR, was defined a significant change in expression. The online program MetaCore (GeneGo Inc. St. Joseph, MI, USA) was used for pathway analysis.

[4] = Cell viability (Cell-Titer Blue), PBMC; format: cell-based; conditions: human, PBMC (peripheral blood mononuclear cells), hydroxytyrosol 20 or 100 μM
Protocol: Cells were seeded at densities of 7,500 cells/in black flat bottom 96-well plates (Nalge Nunc, Penfield, N.Y., USA) and treated with a dose response of hydroxytyrosol (0-200 μM), oleuropein (0-800 μM), tyrosol (0-1000 μM) and homovanilic acid (0-1000 μM) for 24 hours at 37° C., 5% (v/v) CO2. Cell viability was determined after 24 hour exposure to hydroxytyrosol and measured using the Cell-Titer Blue® Assay kit (Promega, Madison, Wis., USA) according to the manufacturer's instructions. Cell-Titer Blue reagent was added to each well and incubated for 4 hours at 37° C., 5% CO2, before reading fluorescence intensity (550 nm excitation; 615 nm emission) using the Perkin Elmer Victor3 (Perkin Elmer, MA, USA) multi-label plate reader.

[5] = tested on: K562 cells; experiment: Apo-ONE Homogeneous Caspase 3/7 assay, K562; format: cell-based, human
Protocol: Apoptosis was determined by cell lysis prior to measuring caspase-3/7 enzymatic activity with Apo-ONE Homogeneous Caspase-3/7 Assay kit (Promega, Wis., USA), according to the manufacturer's instructions. Following determination of growth inhibition as described above, Apo-1 substrate/buffer mix was added to each well at a ratio of 1:1 and incubated for 4 hours on a rotating platform in the dark at 22° C. The fluorescence intensity (λex=485 nm and λem=525 nm) was determined on a Victor3 multilabel plate counter (PerkinElmer, Waltham, Mass., USA). Apoptosis was reported as the change in fluorescence over 4 hours and after subtraction of the media control.

[6] = hydroxytyrosol 24 hr (20 μM per FIG. 18C)

- pEC50 ([1]; K562, 24 hr): 3.82
- pEC50 ([1]; K562, 48 hr): 3.82
- pEC50 ([1]; K562, 120 hr): 4.04
- pEC50 ([2]; U937, 24 hr): 3.25
- pEC50 ([2]; U937, 48 hr): 3.30
- pEC50 ([2]; U937, 120 hr): 3.60
SMILES: OCCc1ccc(O)c(O)c1 [HT, 4-(2-hydroxyethyl)-1,2-benzenediol]
- EC10 (concentration required to reduce the cell viability of the population to 10%) ([1]; K562, 120 hr): 176 µM
- EC10 (concentration required to reduce the cell viability of the population to 10%) ([2]; U937, 120 hr): 370 µM
- heme oxygenase 1 (HMOX-1) up-regulated ([3]; hydroxytyrosol): 15 fold
- number of genes whose expression is regulated ([3]; hydroxytyrosol): ~3 thousand genes
- ELP3 expression Fold Change (UP) [3, 6]: 1.51 fold
- HDAC5 expression Fold Change (UP) [3, 6]: 1.81 fold and 1.70 fold
- HDAC9 expression Fold Change (UP) [3, 6]: 3.00 fold
- HDAC11 expression Fold Change (UP) [3, 6]: 1.65 fold and 1.54 fold
- JHDM1D expression Fold Change (UP) [3, 6]: 1.66 fold
- KDM2B expression Fold Change (UP) [3, 6]: 1.64 fold and 1.55 fold
- KDM3A expression Fold Change (UP) [3, 6]: 1.60 fold
- KDM5D expression Fold Change (DOWN) [3, 6]: 2.00 fold
- MLL3 expression Fold Change (DOWN) [3, 6]: 2.00 fold
- NCOA1 expression Fold Change (UP) [3, 6]: 1.51 fold
- PRDM1 expression Fold Change (UP) [3, 6]: 2.67 fold and 4.00 fold
- PRDM4 expression Fold Change (UP) [3, 6]: 1.56 fold
- PRDM8 expression Fold Change (UP) [3, 6]: 1.85 fold and 1.64 fold
- PRDM11 expression Fold Change (UP) [3, 6]: 3.00 fold
- PRDM12 expression Fold Change (DOWN) [3, 6]: 1.50 fold
- PRMT8 expression Fold Change (DOWN) [3, 6]: 2.00 fold
- SETBP1 expression Fold Change (DOWN) [3, 6]: 2.00 fold
- SETDB2 expression Fold Change (UP) [3, 6]: 1.75 fold
- SETMAR expression Fold Change (UP) [3, 6]: 1.53 fold
- SMYD3 expression Fold Change (DOWN) [3, 6]: 1.55 fold
- viability at 24 h [4]: 100%
- caspase 3/7 apoptotic activity ([5]; K562, hydroxytyrosol 24 hours): significant dose dependent increase
- caspase 3/7 mediated apoptosis ([5]; K562, hydroxytyrosol or Formulation 2 (4× diluted), FIG. 25): significantly induce caspase 3/7 mediated apoptosis

- pEC50 ([1]; K562, 24 hr): 3.47
- pEC50 ([1]; K562, 48 hr): 3.02
- pEC50 ([1]; K562, 120 hr): 3.23
- pEC50 ([2]; U937, 24 hr): 3.14
- pEC50 ([2]; U937, 48 hr): 2.55
- pEC50 ([2]; U937, 120 hr): 2.90
SMILES: C/C=C1/[C@H](O[C@@H]2O[C@H](CO)[C@@H](O)[C@H](O)[C@H]2O)OC=C(C(=O)OC)[C@H]1CC(=O)OCCc1ccc(O)c(O)c1 [OL, oleuropein]
- EC10 (concentration required to reduce the cell viability of the population to 10%) ([1]; K562, 120 hr): 756 µM
- EC10 (concentration required to reduce the cell viability of the population to 10%) ([2]; U937, 120 hr): 2600 µM
